What was measured:
Format in all cases: cell-based
[1] = system: Vero cell cultures; assay: Cytotoxicity in Vero cell cultures; settings: Vero cells; values given as fractions, footnote a not given
Description: (§1) In the following is reported the results from a Vero cell culture infected with different viruses. The cell culture used as well as the methods applied are well known to a person skilled in the art.

[2] = system: Parainfluenza-3 Virus; assay: Antiviral activity in Vero cell cultures; settings: Vero cells; values given as fractions
Method: (§2) IC50 values are determined by the virus plaque formation and/or the virus cytopathic assay using standard methods well-known in the art.
as §1

[3] = system: Sindbis virus; assay: Antiviral activity in Vero cell cultures; settings: Vero cells; values given as fractions
Method: as §2, §1

[4] = system: Coxsackie virus B4; assay: Antiviral activity in Vero cell cultures; settings: Vero cells; values given as fractions
Method: as §2, §1

[5] = system: Simliki forest virus; assay: Antiviral activity in Vero cell cultures; settings: Vero cells; values given as fractions
Method: as §2, §1

[6] = system: Reovirus-1; assay: Antiviral activity in Vero cell cultures; settings: Vero cells; values given as fractions
Method: as §2, §1

[7] = system: cytomegalovirus Davis strain; assay: Activity against cytomegalovirus in HEL cells (plaque formation); settings: virus plaque formation reduced by 50%, 100 PFU, values given as fractions
Method: as §2

[8] = system: cytomegalovirus AD-169 strain; assay: as above; settings: virus plaque formation reduced by 50%, 100 PFU, values given as fractions
Method: as §2

[9] = system: human embryonic lung (HEL) cells; assay: Cytotoxicity in human embryonic lung (HEL) cells; settings: HEL cell growth reduced by 50%; values given as fractions

SMILES	Minimum Cytotoxic Concentration [1]	Minimum inhibitory concentration, Parainfluenza-3 Virus [2]	Minimum inhibitory concentration, Sindbis virus [3]	Minimum inhibitory concentration, Coxsackie virus B4 [4]	Minimum inhibitory concentration, Simliki forest virus [5]	Minimum inhibitory concentration, Reovirus-1 [6]	Antiviral activity IC50, Davis strain, Assay 1 [7]	Antiviral activity IC50, AD-169 strain, Assay 1 [8]	Cytotoxicity CC50 [9]
C=CCOc1ccc(C(=O)/C=C/c2cccc(OC)c2OC)cc1 [2,3m4′ac]	<1/100	<1/100	<1/100	<1/100	<1/100	<1/100	<1/30	<1/30	<1/30
C=CCOc1ccc(C(=O)/C=C/c2cc(OC)c(OC)cc2OC)cc1 [2,4,5m4′ac]	<1/100	1/2000	1/2000	1/600	1/600	<1/100	<1/30	1/60	<1/30
C=CCOc1ccc(C(=O)/C=C/c2c(OC)cc(OC)cc2OC)cc1 [2,4,6m4′ac]	<1/100	1/2000	1/2000	1/600	1/600	<1/100	1/120	1/200	<1/30
COc1ccc(/C=C/C(=O)c2ccccc2O)c(OC)c1 [2,4m2′hc]	<1/100	<1/100	<1/100	<1/100	<1/100	<1/100	<1/60	<1/60	<1/60
COc1ccc(/C=C/C(=O)c2ccccc2)c(OC)c1 [2,4mc]	<1/100	<1/100	<1/100	<1/100	<1/100	<1/100	1/35	<1/30	<1/30
C=CCOc1ccc(C(=O)/C=C/c2cc(OC)ccc2OC)cc1 [2,5m4′ac]	<1/100	<1/100	<1/100	<1/100	<1/100	<1/100	1/55	1/35	<1/30
COc1cccc(OC)c1/C=C/C(=O)c1ccc(O)cc1 [2,6m4′hc]	<1/100	1/600	1/2000	1/600	1/600	<1/100	1/300	1/150	1/80
C=CCOc1ccc(C(=O)/C=C/c2cc(OC)c(OC)c(OC)c2)cc1 [3,4,5m4′ac]	<1/100	1/2000	1/2000	1/2000	1/600	<1/100	1/85	1/150	<1/60

From patent publication US20030065039A1, “Biologically active 1,3-bis-aromatic-prop-2-en-1-ones, 1,3-bis-aromatic-propan-1-ones, and 1,3-bis-aromatic-prop-2-yn-1-ones” (Statens Serum Institute, priority 1997, published 2003)
